Measurements as given in US20230271924A1 (published 2023).

Row | melting point [°C] | Structure (SMILES)
1 | 58 to 59 | CCCCCCCCCCCCCC(=O)Oc1cccc2[nH]cc(CCN(C)C)c12
2 | 69 to 70 | CCCCCCCC(=O)Oc1cccc2[nH]cc(CCN(C)C)c12
